Reference: patent US7951800B2, “Anti-infective agents” (Abbott Laboratories, Inc., priority 2006, dated 2011)

Legend:
[1] = tested on: HCV 1b-N replicon cells; test: passage of HCV 1b-N replicon cells with compounds alone or in combination, absence of neomycin; type: cell-based; conditions: individual compounds or agents at 10 to 20-fold above their respective EC50
Method: The effect of compound I on HCV replicon was evaluated alone or in combination with other anti-HCV agents. […] The EC50 values represent the 50% inhibitory concentrations of these compounds/agents in replicon cell assays.

[2] = tested on: HCV replicon; test: HCV replicon assays; type: cell-based
Method: The 50% inhibitory concentration of an HCV inhibitor (EC50) can also be evaluated using HCV replicon assays as described in Ikeda et al., J. VIROL., 76:2997-3006 (2002), and Blight et al., SCIENCE, 290:1972-1974 (2000), with the following modifications. Replicon cells are plated at 3×10^3 cells per well in 96-well plate in DMEM medium containing 5% fetal calf serum. At day 1, culture medium is removed and replaced with fresh medium containing eight serial 2-fold dilutions of the compound of interest. The final concentration of DMSO in medium is 0.5%. The untreated control culture is treated in an identical manner except no inhibitor is added to the medium. Plates are incubated in a CO2 incubator at 37° C. On Day 4, 100 μl lysis buffer (RTL) (Qiagen) is added to each well after removal of culture medium. RNA is purified according to manufacturer's recommendations (Qiagen RNAeasy) and eluted in 200 μl of water. The HCV RNA level is quantified from a portion (5 μl out of 200 μl) of the purified RNA by real-time RT-PCR method. The primers and probe are derived from specific sequence in the 5′UTR region. RT-PCR reaction is performed at 48° C. for 30 min, followed by 40 cycles set to 95° C., 15 s; 54° C., 30 s; and 72° C., 40 s. […]

[3] = liver concentrations after oral dosing in rats; type: in vivo, Male Sprague-Dawley derived rats; conditions: rat; for concentration at 1 h / concentration at 12 h / concentration at 24 h: male, Sprague-Dawley, liver, 5 mg/kg oral; for EC50 multiple: ratio of post 24-hour liver concentration over EC50 value: EC50 from HCV replicon assays
Method: Compounds I, II and III were prepared as a solution in a DMSO: PEG-400 vehicle at a concentration of 5 mg/mL shortly before oral dosing. Male Sprague-Dawley derived rats, weighing 250-350 grams, were obtained from Charles River Laboratories, Inc. (Wilmington, Mass.). The animals were fasted overnight prior to dosing and throughout the study period, but were allowed water ad libitum. Animals were allowed chow ad libitum post 12 hr. Each study used a group of 3 rats. Each rat received a 5 mg/kg (1 mL/kg) oral dose of compound I, II or III administered by gavage. At selected time points after dosing, groups of three rats were euthanized with CO2 and exsanguinated by cardiac puncture. The entire liver tissue from each animal was removed and placed in a labeled plastic container. Groups of rats were sacrificed 1, 12 and 24 hours after drug administration. The liver samples were stored on ice (about 4° C.), and then assayed for the concentration of each compound using high performance liquid chromatographic procedures.

Structure (SMILES)	HCV RNA levels during treatment [1]	elimination of HCV RNA from replicon cells [1]	higher potency in the inhibition of HCV replication as compared to 1-Benzyl-4-hydroxy-3-[7-(hydroxymethyl)-1,1-dioxido-4H-thieno[2,3-e][1,2,4]thiadiazin-3-yl]quinolin-2(1H)-one [2]	EC50 ([2]; Hepatitis C virus, read-out: 50% inhibitory concentration (EC50), HCV replicon assays)	concentration at 1 h [3]	concentration at 12 h [3]	concentration at 24 h [3]	liver concentration of compound I relative to those of compounds II and III ([3]; 24 hours after oral dosing)	EC50 multiple: ratio of post 24-hour liver concentration over EC50 value ([3]; 24 hours after oral dosing)
CCC[C@H](NC(=O)C1[C@H]2CCC[C@H]2CN1C(=O)[C@@H](NC(=O)[C@@H](NC(=O)c1cnccn1)C1CCCCC1)C(C)(C)C)C(=O)C(=O)NC1CC1 (stereo partly shown) [compound VX-950]	significantly reduced	none of them eliminated the HCV RNA							
CS(=O)(=O)NCc1csc2c1S(=O)(=O)N=C(c1c(O)c3ccccc3n(NC3CCC3)c1=O)N2 [compound I, N-[(3-{1-[(cyclobutyl)amino]-4-hydroxy-2-oxo-1,2-dihydro-quinolin-3-yl}-1,1-dioxo-1,4-dihydro-1λ^6-thieno[2,3-e][1,2,4]thiadiazin-7-yl)methyl]methanesulfonamide]	significantly reduced	none of them eliminated the HCV RNA	about 100 fold	~2.5 nM	18700 ng/g	19200 ng/g	2420 ng/g	8-20 times	more than 1.800 fold
CS(=O)(=O)NCc1csc2c1S(=O)(=O)N=C(c1c(O)c3ccccc3n(NCC3CC3)c1=O)N2 [compound II, N-[(3-{1-[(cyclopropylmethyl)amino]-4-hydroxy-2-oxo-1,2-dihydroquinolin-3-yl}-1,1-dioxido-4H-thieno[2,3-e][1,2,4]thiadiazin-7-yl)methyl]methanesulfonamide]					18900 ng/g	7920 ng/g	120 ng/g		significantly lower than that of compound I
CS(=O)(=O)Nc1ccc2c(c1)S(=O)(=O)N=C(c1c(O)c3ccccc3n(NC3CCC3)c1=O)N2 [compound III, N-{3-[1-(cyclobutylamino)-4-hydroxy-2-oxo-1,2-dihydroquinolin-3-yl]-1,1-dioxido-4H-1,2,4-benzothiadiazin-7-yl}methanesulfonamide]					8790 ng/g	4140 ng/g	280 ng/g		significantly lower than that of compound I
